Experimental data as given in EP3057951B1, “METHYLENE LINKED QUINOLINYL MODULATORS OF ROR-GAMMA-T” (Janssen Pharmaceutica NV, priority 2013, dated 2015).
Counter-ions that a name gives are not always drawn.

target: T1, wild type human RORγt ligand binding domain (RORyt LBD) (Homo sapiens, UniProt P51449); assay: RORγt ThermoFluor assay (thermal shift, binding affinity KD)
T1 construct: His-tag (N); TurboTEV protease cleavage site (ENLYFQG) (N); made in house; host or cells: E. coli (pHIS1, modified pET vector)
T1 sequence (P51449 258-518): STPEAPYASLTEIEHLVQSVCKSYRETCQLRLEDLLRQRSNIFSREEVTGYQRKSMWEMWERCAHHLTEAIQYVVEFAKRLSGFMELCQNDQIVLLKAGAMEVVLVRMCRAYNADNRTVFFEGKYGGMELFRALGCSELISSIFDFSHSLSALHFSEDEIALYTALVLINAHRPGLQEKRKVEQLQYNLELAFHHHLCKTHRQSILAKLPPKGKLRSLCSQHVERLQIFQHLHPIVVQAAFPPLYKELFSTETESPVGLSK

Compound | Kd
CCc1nc2ccc(C(O)(c3cnnn3C)C3CCOCC3)cc2c(Cl)c1Cc1ccc(C(F)(F)F)cc1 (single isomer, unassigned) [Example 33c, (4-Chloro-2-ethyl-3-(4-(trifluoromethyl)benzyl)quinolin-6-yl)(1-methyl-1H-1,2,3-triazol-5-yl)(tetrahydro-2H-pyran-4-yl)methanol] | 0.84 nM
Cc1nc2ccc(C(O)(c3ccnc(C(F)(F)F)c3)c3cncn3C)cc2c(Cl)c1Cc1ccc(C(F)(F)F)cc1 (centres unmarked) [Example 30a, (4-Chloro-2-methyl-3-(4-(trifluoromethyl)benzyl)quinofin-6-yl)(1-methyl-1H-imidazol-5-yl)(2-(trifluoromethyl)pyridin4-yl)methanol] | 0.28 nM
Cc1nc2ccc(C(O)(c3cnnn3C)C3CN(C(=O)OC(C)(C)C)C3)cc2c(Cl)c1Cc1ccc(C(F)(F)F)cc1 (centres unmarked) [Example 31, tert-Butyl 3-((4-chloro-2-methyl-3-(4-(trifluoromethyl)benzyl)quinolin-6-yl)(hydroxy)(1-methyl-1H-1,2,3-triazol-5-yl)methyl)azetidine-1-carboxylate] | 0.79 nM
COc1nc2ccc(C(O)(c3cnc(C)n3C)c3cnc(C)n3C)cc2c(Cl)c1Cc1ccc(C(F)(F)F)nc1 [Example 45, (4-Chloro-2-methoxy-3-((6-(trifluoromethyl)pyridin-3-yl)methyl)quinolin-6-yl)bis(1,2-dimethyl-1H-imidazol-5-yl)methanol] | 0.21 nM
COc1nc2ccc(C(O)(c3cnc(C)n3C)c3cnc(C)n3C)cc2c(C#N)c1Cc1ccccc1C(F)(F)F [Example 10, 6-(bis(1,2-Dimethyl-1H-imidazol-5-yl)(hydroxy)methyl)-2-methoxy-3-(2-(trifluoromethyl)benzyl)quinoline-4-carbonitrile•TFA] | 0.17 nM
COc1nc2ccc(C(O)(c3ccccn3)c3cncn3C)cc2c(Cl)c1Cc1ccc(S(C)(=O)=O)cc1 (single isomer, unassigned) [Example 58b, (4-Chloro-2-methoxy-3-(4-(methylsulfonyl)benzyl)quinolin-6-yl)(1-methyl-1H-imidazol-5-yl)(pyridin-2-yl)methanol] | 3600 nM
Cc1nc2ccc(C(O)(c3ccc(C(F)(F)F)nc3)c3cncn3C)cc2c(Cl)c1Cc1ccc(C(F)(F)F)cc1 (single isomer, unassigned) [Example 26c, (4-Chloro-2-methyl-3-(4-(trifluoromethyl)benzyl)quinolin-6-yl)(1-methyl-1H-imidazol-5-yl)(6-(trifluoromethyl)pyridin-3-yl)methanol] | 0.77 nM
Cc1nc2ccc(C(O)(c3ccc(C(F)(F)F)nc3)c3cncn3C)cc2c(Cl)c1Cc1ccc(C(F)(F)F)cc1 (single isomer, unassigned) [Example 26b, (4-Chloro-2-methyl-3-(4-(trifluoromethyl)benzyl)quinolin-6-yl)(1-methyl-1H-imidazol-5-yl)(6-(trifluoromethyl)pyridin-3-yl)methanol] | 15 nM
CCc1nc2ccc(C(O)(c3cnc(C)n3C)C3CCOCC3)cc2c(Cl)c1Cc1ccc(C(F)(F)F)cc1 (centres unmarked) [Example 34a, (4-Chloro-2-ethyl-3-(4-(trifluoromethyl)benzyl)quinolin-6-yl)(1,2-dimethyl-1H-imidazol-5-yl)(tetrahydro-2H-pyran-4-yl)methanol] | 0.03 nM
COc1nc2ccc(C(O)(c3cnc(C)n3C)C3CCOCC3)cc2c(Cl)c1Cc1ccc(C(F)(F)F)cc1 (single isomer, unassigned) [Example 86c, (4-Chloro-2-methoxy-3-(4-(trifluoromethyl)benzyl)quinolin-6-yl)(1,2-dimethyl-1H-imidazol-5-yl)(tetrahydro-2H-pyran-4-yl)methanol] | 0.06 nM
CCc1nc2ccc(C(O)(c3cnc(C)n3C)c3cnc(C)n3C)cc2c(Cl)c1Cc1ccc(C(F)(F)F)cc1 [Example 4, (4-Chloro-2-ethyl-3-(4-(trifluoromethyl)benzyl)quinolin-6-yl)bis(1,2-dimethyl-1H-imidazol-5-yl)methanole•TFA] | 0.006 nM
